Measurements as given in patent US20250230193A1, “CYCLIC COMPOUND HAVING SELECTIVE KRAS INHIBITORY EFFECT ON HRAS AND NRAS” (CHUGAI SEIYAKU KABUSHIKI KAISHA, priority 2022, published 2025).
*1 amine or outer side, *2 acyl side, *3 side chain or, on linkers, in order; H or OH if unused. Where a SMILES comes first, the peptide text is derived from it. Bridges are numbered along the chain shown (N, C = ends). [ ]: non-standard residue; d: D form. The star is where a group is joined. hPhe(3-Cl-4-CF3) = N[C@@H](CCc1ccc(C(F)(F)F)c(Cl)c1)C(=O)O; NPrPhe(4-CF3) = CCCN[C@@H](Cc1ccc(C(F)(F)F)cc1)C(=O)O; NMePhe(4-CF3) = CN[C@@H](Cc1ccc(C(F)(F)F)cc1)C(=O)O; NMeGly(cPent) = CN[C@H](C(=O)O)C1CCCC1; X46 = CC1(C)CN([*:1])[C@@H]1C(=O)[*:2]; Hyp = O=C(O)[C@@H]1C[C@@H](O)CN1; Piperidide(4-Me) = CC1CCN(*)CC1; NMeD = CN[C@@H](CC(=O)O)C(=O)O; NMeL = CN[C@@H](CC(C)C)C(=O)O; Morpholide = C1CN(*)CCO1; NMeA = CN[C@@H](C)C(=O)O; Ac5c = NC1(C(=O)O)CCCC1; Aze = O=C(O)[C@@H]1CCN1; Sar = CNCC(=O)O

Experiments:
[1] = target: GDP-bound NRAS wild-type protein (Homo sapiens, UniProt P01111); experiment: Binding to NRAS by surface plasmon resonance (SPR), Single Cycle Kinetics; conditions: SPR
[2] = target: GDP-bound HRAS wild-type protein (Homo sapiens, UniProt P01112); experiment: Binding to HRAS by surface plasmon resonance (SPR), Single Cycle Kinetics; conditions: SPR
[3] = KD ratio, GDP-bound NRAS wild-type vs GDP-bound KRAS wild-type
[4] = KD ratio, GDP-bound HRAS wild-type vs GDP-bound KRAS wild-type

Chain of GDP-bound HRAS wild-type protein (P01112 whole entry): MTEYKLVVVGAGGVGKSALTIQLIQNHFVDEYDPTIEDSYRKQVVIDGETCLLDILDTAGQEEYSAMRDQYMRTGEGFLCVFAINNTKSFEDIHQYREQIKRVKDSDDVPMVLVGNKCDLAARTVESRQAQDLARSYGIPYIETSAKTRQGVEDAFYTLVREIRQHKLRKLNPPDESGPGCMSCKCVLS
Chain of GDP-bound NRAS wild-type protein (P01111 whole entry): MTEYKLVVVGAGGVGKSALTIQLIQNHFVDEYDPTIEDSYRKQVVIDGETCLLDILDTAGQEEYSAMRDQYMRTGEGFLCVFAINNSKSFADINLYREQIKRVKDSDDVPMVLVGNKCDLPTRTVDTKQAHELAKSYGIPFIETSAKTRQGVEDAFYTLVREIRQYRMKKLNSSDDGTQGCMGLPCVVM

CCO[C@@H]1C[C@H]2C(=O)NC3(CCC3)C(=O)N(C)[C@@H](C3CCCC3)C(=O)N(C)[C@H](C(=O)N(C)C)CC(=O)N(C)[C@@H](CC)C(=O)N[C@@H]([C@@H](C)CC)C(=O)N(C)CC(=O)N(C)[C@H]3CCCCCN(C3=O)[C@@H](Cc3ccc(F)cc3Cl)C(=O)N(C)CC(=O)N[C@@H](CCc3cc(F)c(C(F)(F)F)c(F)c3)C(=O)N2C1 [PP0908]
NRAS/KRAS (ratio of KD value with respect to NRAS to KD value with respect to KRAS) [1, 3]: B (a compound having 3 or more and less than 10 is denoted as B) | HRAS/KRAS (ratio of KD value with respect to HRAS to KD value with respect to KRAS) [2, 4]: B (a compound having 3 or more and less than 10 is denoted as B)

CCO[C@@H]1C[C@H]2C(=O)NC3(CCC3)C(=O)N(C)[C@@H](C3CCCC3)C(=O)N(C)[C@H](C(=O)N3CCOCC3)CC(=O)N(C)[C@@H](COC)C(=O)N[C@@H]([C@@H](C)CC)C(=O)N3CC[C@H]3C(=O)N(C)[C@H]3CCCCCN(C3=O)[C@@H](Cc3ccc(C(F)(F)F)cc3)C(=O)N(C)CC(=O)N[C@@H](CCc3cc(F)c(C(F)(F)F)c(F)c3)C(=O)N2C1 [PP0863]
NRAS/KRAS (ratio of KD value with respect to NRAS to KD value with respect to KRAS) [1, 3]: B (a compound having 3 or more and less than 10 is denoted as B) | HRAS/KRAS (ratio of KD value with respect to HRAS to KD value with respect to KRAS) [2, 4]: B (a compound having 3 or more and less than 10 is denoted as B)

CC[C@H](C)[C@@H]1NC(=O)[C@H](CC)N(C)C(=O)C[C@@H](C(=O)N(C)C)N(C)C(=O)[C@H](C2CCCC2)N(C)C(=O)C2(CCC2)NC(=O)[C@@H]2CCCN2C(=O)[C@H](CCc2cc(C)c(Cl)c(C)c2)NC(=O)CN(C)C(=O)[C@H](Cc2ccc(C(F)(F)F)cc2)N2CC/C=C\C[C@@H](C2=O)N(C)C(=O)CN(C)C1=O [PP1822]
NRAS/KRAS (ratio of KD value for NRAS to KD value for KRAS) [1, 3]: A (a compound having 10 or more and less than 20 is denoted as A) | HRAS/KRAS (ratio of KD value for HRAS to KD value for KRAS) [2, 4]: B (a compound having 3 or more and less than 10 is denoted as B)

CCCN1C(=O)CN(C)C(=O)[C@@H]2CCN2C(=O)[C@H]([C@@H](C)CC)NC(=O)[C@H](CC(C)C)N(C)C(=O)C[C@@H](C(=O)N(C)C)N(C)C(=O)[C@H](C2CCCC2)N(C)C(=O)C2(CCCC2)NC(=O)[C@@H]2C[C@@H](OCC)CN2C(=O)[C@H](CCc2ccc(C(F)(F)F)c(Cl)c2)NC(=O)CN(C)C(=O)[C@@H]1Cc1ccc(C(F)(F)F)cc1 [PP0433] ([NMeL]I[Aze][Sar][NPrPhe(4-CF3)][Sar][hPhe(3-Cl-4-CF3)][Hyp](Et)[Ac5c][NMeGly(cPent)][NMeD]-NMe2; lactam N-11)
NRAS/KRAS (ratio of KD value with respect to GDP-bound NRAS wild-type protein to KD value with respect to KRAS) [1]: B (a compound having 3 or more and less than 10 is denoted as B) | HRAS/KRAS (ratio of KD value with respect to GDP-bound HRAS wild-type protein to KD value with respect to KRAS) [2]: B (a compound having 3 or more and less than 10 is denoted as B)

CCO[C@@H]1C[C@H]2C(=O)NC3(CCC3)C(=O)N(C)[C@@H](C3CCCC3)C(=O)N(C)[C@H](C(=O)N(C)C)CC(=O)N(C)[C@@H](CC(C)C)C(=O)N[C@@H]([C@@H](C)CC)C(=O)N3CC[C@H]3C(=O)N(C)[C@H]3CC(C)=CCN(C3=O)[C@@H](Cc3ccc(C(F)(F)F)cc3)C(=O)N(C)CC(=O)N[C@@H](CCc3cc(F)c(C(F)(F)F)c(F)c3)C(=O)N2C1 [PP1033]
NRAS/KRAS (ratio of KD value with respect to NRAS to KD value with respect to KRAS) [1, 3]: C (A compound having a KD ratio of 0.1 or more and less than 3 is denoted as C) | HRAS/KRAS (ratio of KD value with respect to HRAS to KD value with respect to KRAS) [2, 4]: C (A compound having a KD ratio of 0.1 or more and less than 3 is denoted as C)

C=CCC[C@H]1C(=O)N[C@@H]([C@@H](C)CC)C(=O)N(C)CC(=O)N(C)[C@H]2CCCCN(C2=O)[C@@H](Cc2ccc(C(F)(F)F)cc2)C(=O)N(C)CC(=O)N[C@@H](CCc2cc(F)c(C(F)(F)F)c(F)c2)C(=O)N2C[C@H](OCC)C[C@H]2C(=O)N[C@](C)(CC=C)C(=O)N(C)[C@@H](C2CCCC2)C(=O)N(C)[C@H](C(=O)N2CCOCC2)CC(=O)N1C [PP0875]
NRAS/KRAS (ratio of KD value with respect to NRAS to KD value with respect to KRAS) [1, 3]: C (A compound having a KD ratio of 0.1 or more and less than 3 is denoted as C) | HRAS/KRAS (ratio of KD value with respect to HRAS to KD value with respect to KRAS) [2, 4]: B (a compound having 3 or more and less than 10 is denoted as B)

CCC[C@H]1C(=O)N[C@@H]([C@@H](C)CC)C(=O)N(C2CC2)CC(=O)N(C)[C@H]2C/C=C\CCN(C2=O)[C@@H](Cc2ccc(C)cc2)C(=O)N(C)CC(=O)N[C@@H](CCc2cc(F)c(C(F)(F)F)c(F)c2)C(=O)N2C[C@H](OCC)C[C@H]2C(=O)N(C)C2(CCC2)C(=O)N(C)[C@@H](C2CCCC2)C(=O)N(C)[C@H](C(=O)N2CCCC2)CC(=O)N1C [PP3113, (2S,8S,12R,14S,20S,23S,27S,30S,36S,38Z)-20-cyclopentyl-32-cyclopropyl-8-[2-[3,5-difluoro-4-(trifluoromethyl)phenyl]ethyl]-12-ethoxy-4,16,19,22,26,35-hexamethyl-30-[(1S)-1-methylpropyl]-27-propyl-2-(p-tolylmethyl)-23-(pyrrolidine-1-carbonyl)spiro[1,4,7,10,16,19,22,26,29,32,35-undecazatricyclo[34.5.1.0^10,14]dotetracont-38-ene-17,1′-cyclobutane]-3,6,9,15,18,21,25,28,31,34,42-undecone]
NRAS/KRAS (ratio of KD value with respect to GDP-bound NRAS wild-type protein to KD value with respect to KRAS) ([1]; GDP-bound wild-type proteins): A (a compound having 10 or more and less than 20 is denoted as A) | HRAS/KRAS (ratio of KD value with respect to GDP-bound HRAS wild-type protein to KD value with respect to KRAS) ([2]; GDP-bound wild-type proteins): A (a compound having 10 or more and less than 20 is denoted as A)

CC[C@H](C)[C@@H]1NC(=O)[C@H](CC(C)C)N(C)C(=O)C[C@@H](C(=O)N2CCOCC2)N(C)C(=O)[C@H](C2CCCC2)N(C)C(=O)C2(CCC2)NC(=O)[C@@H]2[C@@H](OCC3CCCC3)CCN2C(=O)[C@H](CCc2cc(F)c(C(F)(F)F)c(F)c2)NC(=O)CN(C)C(=O)[C@H](Cc2ccc(C(F)(F)F)cc2)N2CCCCC[C@@H](C2=O)N(C)C(=O)CN(C)C1=O [PP1011]
NRAS/KRAS (ratio of KD value with respect to NRAS to KD value with respect to KRAS) [1, 3]: A (a compound having 10 or more and less than 20 is denoted as A) | HRAS/KRAS (ratio of KD value with respect to HRAS to KD value with respect to KRAS) [2, 4]: B (a compound having 3 or more and less than 10 is denoted as B)

CCCN1C(=O)CN(C)C(=O)[C@H]2N(CC2(C)C)C(=O)[C@H]([C@@H](C)CC)NC(=O)[C@H](CC(C)C)N(C)C(=O)C[C@@H](C(=O)N2CCOCC2)N(C)C(=O)[C@H](C2CCCC2)N(C)C(=O)C2(CCCC2)NC(=O)[C@@H]2CCCN2C(=O)[C@H](CCc2ccc(C(F)(F)F)c(Cl)c2)NC(=O)CN(C)C(=O)[C@@H]1Cc1ccc(C(F)(F)F)cc1 [PP0256] ([NMeL]I[X46][Sar][NPrPhe(4-CF3)][Sar][hPhe(3-Cl-4-CF3)]P[Ac5c][NMeGly(cPent)][NMeD]-Morpholide; lactam N-11)
NRAS/KRAS (ratio of KD for GDP-bound NRAS wild-type to KD for KRAS) [1]: B (a compound having 3 or more and less than 10 is denoted as B) | HRAS/KRAS (ratio of KD for GDP-bound HRAS wild-type to KD for KRAS) [2]: C (A compound having a KD ratio of 0.1 or more and less than 3 is denoted as C)

CCC[C@H]1C(=O)N[C@@H](C2CCCCC2)C(=O)N(C)CC(=O)N(C)[C@H]2C/C=C\CCN(C2=O)[C@@H](Cc2ccc(C)cc2)C(=O)N(C)CC(=O)N[C@@H](CCc2ccc(C(F)(F)F)c(Cl)c2)C(=O)N2C[C@H](OCC)C[C@H]2C(=O)NC2(CC(C)(C)C2)C(=O)N(C)[C@@H](CC(C)(C)C)C(=O)N(C)[C@H](C(=O)N(C)C)CC(=O)N1C [PP3018]
NRAS/KRAS (ratio of KD value with respect to GDP-bound NRAS wild-type protein to KD value with respect to KRAS) ([1]; GDP-bound wild-type proteins): A (a compound having 10 or more and less than 20 is denoted as A) | HRAS/KRAS (ratio of KD value with respect to GDP-bound HRAS wild-type protein to KD value with respect to KRAS) ([2]; GDP-bound wild-type proteins): B (a compound having 3 or more and less than 10 is denoted as B)

CC[C@H](C)[C@@H]1NC(=O)[C@H](CC(C)C)N(C)C(=O)C[C@@H](C(=O)N2CCOCC2)N(C)C(=O)[C@H](C2CCCC2)N(C)C(=O)C2(CCCC2)NC(=O)[C@@H]2C[C@H](OC)CN2C(=O)[C@H](CCc2cc(F)c(C(F)(F)F)c(F)c2)NC(=O)CN(C)C(=O)[C@H](Cc2ccc(C(F)(F)F)cc2)N2CCCC[C@@H](C2=O)N(C)C(=O)CN(C)C1=O [PP0557]
NRAS/KRAS (ratio of KD value with respect to GDP-bound NRAS wild-type protein to KD value with respect to KRAS) [1]: B (a compound having 3 or more and less than 10 is denoted as B) | HRAS/KRAS (ratio of KD value with respect to GDP-bound HRAS wild-type protein to KD value with respect to KRAS) [2]: B (a compound having 3 or more and less than 10 is denoted as B)

CC[C@H](C)[C@@H]1NC(=O)[C@H](CC(C)C)N(C)C(=O)C[C@@H](C(=O)N2CCOCC2)N(C)C(=O)[C@H](C2CCCC2)N(C)C(=O)C2(CCCC2)NC(=O)[C@@H]2CCCN2C(=O)[C@H](CCc2ccc(C(F)(F)F)c(Cl)c2)NC(=O)CN(C)C(=O)[C@H](Cc2ccc(C(F)(F)F)cc2)N(C)C(=O)CN(C)C(=O)CN(C)C1=O [PP0076] ([NMeL]I[Sar][Sar][NMePhe(4-CF3)][Sar][hPhe(3-Cl-4-CF3)]P[Ac5c][NMeGly(cPent)][NMeD]-Morpholide; lactam N-11)
NRAS/KRAS (ratio of KD for GDP-bound NRAS wild-type to KD for KRAS) [1]: C (A compound having a KD ratio of 0.1 or more and less than 3 is denoted as C) | HRAS/KRAS (ratio of KD for GDP-bound HRAS wild-type to KD for KRAS) [2]: C (A compound having a KD ratio of 0.1 or more and less than 3 is denoted as C)

CCCN1C(=O)[C@@H]2CCN2C(=O)[C@H](C)N(C)C(=O)[C@H]([C@@H](C)CC)NC(=O)[C@H](CC(C)C)N(C)C(=O)C[C@@H](C(=O)N2CCC(C)CC2)N(C)C(=O)[C@H](C2CCCC2)N(C)C(=O)C2(CCCC2)NC(=O)[C@@H]2CCCN2C(=O)[C@H](CCc2ccc(C(F)(F)F)c(Cl)c2)NC(=O)CN(C)C(=O)[C@@H]1Cc1ccc(C(F)(F)F)cc1 [PP0185] ([NMeL]I[NMeA][Aze][NPrPhe(4-CF3)][Sar][hPhe(3-Cl-4-CF3)]P[Ac5c][NMeGly(cPent)][NMeD]-{Piperidide(4-Me)}; lactam N-11)
NRAS/KRAS (ratio of KD for GDP-bound NRAS wild-type to KD for KRAS) [1]: C (A compound having a KD ratio of 0.1 or more and less than 3 is denoted as C) | HRAS/KRAS (ratio of KD for GDP-bound HRAS wild-type to KD for KRAS) [2]: B (a compound having 3 or more and less than 10 is denoted as B)
